Values of other authors in patent US11975013B2, “Stable formulations comprising thiotepa” (SHORLA PHARMA LTD., priority 2020, dated 2024).

Settings: reconstituted in water, stored longer than five days; EP 0 419 890

SMILES: S=P(N1CC1)(N1CC1)N1CC1 [thiotepa, N,N′,N″-triethylenethiophosphoramide]
- potency on storage (in words): substantial loss of potency
